Molecules are shown by their SMILES. Where only a bound is given, the exact number is not on record here.

Sequence of PRMT5-MTA (O14744 whole entry): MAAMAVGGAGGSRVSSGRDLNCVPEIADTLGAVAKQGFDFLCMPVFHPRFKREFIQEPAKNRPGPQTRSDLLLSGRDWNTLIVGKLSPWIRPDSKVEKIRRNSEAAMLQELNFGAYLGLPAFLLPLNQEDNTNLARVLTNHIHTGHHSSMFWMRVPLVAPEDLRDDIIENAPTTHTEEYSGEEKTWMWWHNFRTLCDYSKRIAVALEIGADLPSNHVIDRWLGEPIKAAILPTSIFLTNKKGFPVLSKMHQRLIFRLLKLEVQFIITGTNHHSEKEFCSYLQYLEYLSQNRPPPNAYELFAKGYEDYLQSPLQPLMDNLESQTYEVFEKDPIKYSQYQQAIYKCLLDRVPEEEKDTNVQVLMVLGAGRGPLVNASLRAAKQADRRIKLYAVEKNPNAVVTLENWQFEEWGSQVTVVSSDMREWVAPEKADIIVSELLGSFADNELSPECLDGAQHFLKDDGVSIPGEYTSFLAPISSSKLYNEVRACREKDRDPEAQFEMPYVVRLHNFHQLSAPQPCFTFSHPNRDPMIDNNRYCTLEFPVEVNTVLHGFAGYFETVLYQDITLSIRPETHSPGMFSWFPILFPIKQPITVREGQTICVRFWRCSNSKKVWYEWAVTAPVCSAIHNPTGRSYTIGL
Sequence of PRMT5-MTA (Q9BQA1 whole entry partner): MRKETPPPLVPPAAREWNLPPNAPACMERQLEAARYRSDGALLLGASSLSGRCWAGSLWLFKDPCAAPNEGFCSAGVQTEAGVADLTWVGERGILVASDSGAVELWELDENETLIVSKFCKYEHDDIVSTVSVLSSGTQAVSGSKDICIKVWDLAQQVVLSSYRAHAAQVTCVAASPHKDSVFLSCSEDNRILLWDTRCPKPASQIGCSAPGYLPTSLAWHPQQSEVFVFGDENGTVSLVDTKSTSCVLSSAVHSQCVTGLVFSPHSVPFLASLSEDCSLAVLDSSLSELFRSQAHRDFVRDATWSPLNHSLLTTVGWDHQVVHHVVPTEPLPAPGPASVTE

The first experiment deals with PRMT5-MTA (Homo sapiens, UniProt O14744). The experiment can be described thus: Enzymatic inhibitory activity against PRMT5-MTA (AlphaScreen). The format is biochemical. The conditions noted are these: read-out: IC50. As to the method:
The AlphaScreen method was used to detect the enzymatic inhibitory activity of the compounds against PRMT5-MTA. 1 x Methyltransferase assay buffer IV (signalchem) was prepared as a solution for diluting each component for the enzymatic reaction. PRMT5/[…] protein of a final concentration of 1 nM, […] (sigma) of a final concentration of 1 uM and S-(5'-adenosine)-L-methionine chloride dihydrochloride (sigma) of a final concentration of 2.5 uM were mixed, then incubated for 30 minutes at room temperature, and transferred to an OptiPlate-384 well plate (PerkinElmer) at a volume of 6 uL per well, for which no PRMT5/[…] protein was added to the control wells. The test compound was 3-fold serially diluted into 10 concentrations, starting from a concentration of 1000 nM, and the series of diluted compounds were added to all wells except the control wells in the well plate using Tecan D300e. The well plate was subjected to centrifugation for 1 minute at 1000 rpm in a centrifuge, and then incubated for 15 minutes at 23°C. Histone H4 substrate of a final concentration of 5 nM was added to the well plate at 4 uL per well, centrifuged for 1 minute at 1000 rpm in a centrifuge, then placed in an incubator at 23°C and reacted for 45 minutes. Anti-histone H4 (symmetrical dimethyl R3) antibody (Abcam) was incubated with 50 ug/mL of AlphaScreen Protein A Acceptor beads (PerkinElmer) for 10 minutes at room temperature beforehand, and then added to the well plate at a volume of 10 uL per well. The mixture was reacted for 1 hour at room temperature. 50 Ug/mL of AlphaScreen Streptavidin Donor beads (PerkinElmer) was added at 10 uL per well, and reacted for 1 hour at room temperature. The signal values were detected for the well plate through the Alpha method using an Envision multifunctional microplate-reader, and the IC50 values for inhibition of the compounds on PRMT5/MET50 enzyme activity were calculated in Xlfit 5.0 software. Table 1. IC50 values for inhibition of the compounds on PRMT5+MTA enzyme activity
Background: Bead proximity is the source of the signal in Alpha formats.
For `CN(c1ncccn1)N(Cc1ccc(C(F)(F)F)cn1)C(=O)c1cc2c(cc1Cl)nc(N)c1cnn(C)c12` [Example 17, 4-amino-7-chloro-N',1-dimethyl-N'-(pyrimidin-2-yl)-N-((5-(trifluoromethyl)pyridin-2-yl)methyl)-1H-pyrazolo[4,3-c]quinoline-8-carbohydrazide], the IC50 (usually the concentration that inhibits the measured activity by half) was found to be 7 nM.

For `Cc1cc2cc(C(=O)N(Cc3ccc(C4CC4)cc3F)N(C)c3nccc4nccnc34)ccc2nc1N` [Example 167, 2-amino-N-(4-cyclopropyl-2-fluorobenzy 1)-N',3-dimethyl-N'-(pyrido[3,4-b]pyrazin-5-yl)quinoline-6-carbohydrazide], the IC50 is 1.3 nM. Still for that read-out and setting: with `Cc1cc2cc(C(=O)N(Cc3ccc(P(C)(C)=O)cn3)N(C)c3ncccn3)ccc2nc1N` [Example 297, 2-amino-N-((5-(dimethylphosphoryl)pyridin-2-yl)methyl)-N',3-dimethyl-N'-(pyrimidin-2-yl)quinoline-6-carbohydrazide] the figure was 6.4 nM. Same read-out and setting: with `Cc1cc2nc(N)c3c(cnn3C)c2cc1C(=O)N(Cc1ccc(C(F)(F)F)cn1)N(C)c1ncccn1` [Example 81, 4-amino-N',3,7-trimethyl-N'-(pyrimidin-2-yl)-N-((5-(trifluoromethyl)pyridin-2-yl)methyl)-3H-pyrazolo[3,4-c]quinoline-8-carbohydrazide] the figure was 5.8 nM.

For the molecule `CN(c1ncccn1)N(Cc1ccc(C(F)(F)F)cn1)C(=O)c1ccc2nc(N)c3cnn(C)c3c2c1` [Example 11, 4-amino-N',1-dimethyl-N'-(pyrimidin-2-y 1)-N-((5-(trifluoromethyl)pyridin-2-yl)methyl)-1H-pyrazolo[4,3-c]quinoline-8-carb ohydrazide], the IC50 came to 1 nM. As to `Cc1cc2cc(C(=O)N(Cc3ccc(C4(O)COC4)cn3)N(C)c3ncccn3)ccc2nc1N` [Example 285, 2-amino-N-((5-(3-hydroxyoxetan-3-yl)pyridin-2-yl)methyl)-N',3-dimethyl-N'-(pyrimidin-2-yl)quinoline-6-carbohydrazide], the IC50 was 2 nM. Same read-out and setting: with `Cc1cc2cc(C(=O)N(Cc3ccc(C4=CCNCC4)cn3)N(C)c3ncccn3)ccc2nc1N` [Example 262, 2-amino-N',3-dimethyl-N'-(pyrimidin-2-yl)-N-((1',2',3',6'-tetrahydro-[3,4'-bipyridine]-6-yl)methyl)quinoline-6-carbohydrazide] the figure was 8.6 nM; with `CN(c1ccc(C(F)(F)F)cn1)N(CC(F)(F)F)C(=O)c1ccc2nc(N)c3c(c2c1)COC3` [Example 54, 4-amino-N'-methyl-N-(2,2,2-trifluoroethyl)-N'-(5-(trifluoromethyl)pyridin-2-yl)-1,3-dihydrofuro[3,4-c]quinoline-8-carbohydrazide], 15.8 nM.

With `COCc1cc2cc(C(=O)N(Cc3ccc(C(F)(F)F)cn3)N(C)c3ncccn3)ccc2nc1N` [Example 326, 2-amino-3-(methoxymethyl)-N'-methyl-N'-(pyrimidin-2-yl)-N-((5-(trifluoromethyl)pyridin-2-yl)methyl)quinoline-6-carbohydrazide], the half-maximal inhibitory concentration (IC50) was found to be 2 nM. Still for that read-out and setting: with `Cc1cc2cc(C(=O)N3CCCN3c3ccc(C(F)(F)F)cn3)ccc2nc1N` [Example 337, (2-amino-3-methylquinolin-6-yl)(2-(5-(trifluoromethyl)pyridin-2-yl)pyrazolidin-1-yl)methanone] the figure was 59 nM.

Take `Cc1cc2cc(C(=O)N(Cc3ccc(C(F)(F)F)cn3)N(c3ncccn3)C3CC3)c(F)cc2nc1N` [Example 269, 2-amino-N'-cyclopropyl-7-fluoro-3-methyl-N'-(pyrimidin-2-yl)-N-((5-(trifluoromethyl)pyridin-2-yl)methyl)quinoline-6-car bohydrazide]: the IC50 was determined as 5.7 nM.

A further experiment relates to HCT116 MTAP KO cells. Kind of experiment: Inhibitory activity against cell proliferation (CellTiter Glo, 6 days), HCT116 MTAP KO. The experiment is classed as cell-based. The conditions noted are these: Homo sapiens, HCT-116, 144 h, HCT116 MTAP KO cells, 6 days, CellTiter Glo; read-out: HCT116 MTAP KO IC50. As to the method:
HCT116-WT (ATCC, CCL-247) and HCT116 MTAP KO (Nanjing Cobioer, CBP75002) cells were seeded into white low-transparency sterile 96-well cell culture plates at a density of 250 cells per well respectively, and the culture medium was McCoy's 5A Medium+10% FBS. The plates were placed under the condition of 37°C and 5% CO2 to be cultured overnight. The cells were treated with 4-fold serially diluted compounds of 8 concentration points starting at an initial concentration of 10000 nM, and the last two columns were used as control wells to which only DMSO was added. The drug-treated cells were further cultured for 6 days. On day 7, CellTiter Glo® reagent was added at 50 uL per well, and after reaction under shaking for 10 minutes at room temperature, the chemiluminescence signals were detected for the well plates through the chemiluminescence detection method using a BIOTEK H1 multifunctional microplate-reader. The IC50 values for inhibition of the compounds on cell viability were calculated in X1fit 5.0 software. Table 2. IC50 values for inhibition of the compounds on HCT116 MTAP KO/WT cell growth
A general note: In ATP-based viability assays light output follows the ATP content of the culture.
Regarding `CN(c1ncccn1)N(Cc1ccc(C(F)(F)F)cn1)C(=O)c1ccc2c(c1)nc(N)n2C` [Example 36, 2-amino-N',1-dimethyl-N'-(pyrimidin-2-yl)-N-((5-(trifluoromethyl)pyridin-2-yl)methyl)-1H-benzo[d]imidazole-5-carbohydrazide], the IC50 is above 10000 nM.
